From ChEMBL document CHEMBL1201862, “PubChem BioAssay data set” (2004)
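Exposure lasted 48 hours, with cells grown in 96-well plates and compounds tested at five concentrations. At the GI50, growth is halved.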 Calls of active or inactive are those of the source. Rule as the data show it: active = GI50 up to about 1.1 µM and inactive = higher.

Columns and labels:
Assay in all cases: inhibition of tumour cell growth, NCI panel, 48 h
MDA-MB-231 = tested on: MDA-MB-231
RXF 393 = tested on: RXF 393
RPMI-8226 = tested on: RPMI-8226
NCI-H226 = tested on: NCI-H226
SW-620 = tested on: SW-620
DU-145 = tested on: DU-145
COLO 205 = tested on: COLO 205
UACC-257 = tested on: UACC-257
NCI/ADR-RES = tested on: NCI/ADR-RES
SN12C = tested on: SN12C
T47D = tested on: T47D
K562 = tested on: K562
HCT-116 = tested on: HCT-116
Hs-578T = tested on: Hs-578T
CAKI-1 = tested on: CAKI-1
OVCAR-4 = tested on: OVCAR-4
ACHN = tested on: ACHN
NCI-H522 = tested on: NCI-H522
TK-10 = tested on: TK-10
MDA-N = tested on: MDA-N

| Compound | GI50 (MDA-MB-231) | GI50 (RXF 393) | GI50 (RPMI-8226) | GI50 (NCI-H226) | GI50 (SW-620) | GI50 (DU-145) | GI50 (COLO 205) | GI50 (UACC-257) | GI50 (NCI/ADR-RES) | GI50 (SN12C) | GI50 (T47D) | GI50 (K562) | GI50 (HCT-116) | GI50 (Hs-578T) | GI50 (CAKI-1) | GI50 (OVCAR-4) | GI50 (ACHN) | GI50 (NCI-H522) | GI50 (TK-10) | GI50 (MDA-N) |
| --- | --- | --- | --- | --- | --- | --- | --- | --- | --- | --- | --- | --- | --- | --- | --- | --- | --- | --- | --- | --- |
| Nc1ccc2c3[nH]c4cc(N)ccc4cc-3nc2c1 | 0.455 µM (active) | 0.32 µM (active) | 0.414 µM (active) | 0.174 µM (active) | 0.0603 µM (active) | 0.318 µM (active) | 0.18 µM (active) | 0.172 µM (active) | 0.243 µM (active) | 0.138 µM (active) | 0.284 µM (active) | 5.07 µM (inactive) | 0.0582 µM (active) | 0.11 µM (active) | 0.203 µM (active) | 0.283 µM (active) | 0.0236 µM (active) | 22.6 µM (inactive) | 2.09 µM (inactive) | 0.194 µM (active) |
| O=c1c2cc(Cl)ccc2n2nnc3ccc(NCCNCCO)c1c32 | 1.47 µM (inactive) | 1.79 µM (inactive) | 1.53 µM (inactive) | 2.11 µM (inactive) | 0.466 µM (active) | 3.44 µM (inactive) | 0.977 µM (active) | 1.78 µM (inactive) | 0.665 µM (active) | 0.731 µM (active) | 5.15 µM (inactive) | 0.589 µM (active) | 0.419 µM (active) | 1.78 µM (inactive) | 1.83 µM (inactive) | 1.01 µM (active) | 0.682 µM (active) | 1.33 µM (inactive) | 2.4 µM (inactive) | 1.1 µM (active) |
| CCCCCCCCCCNC(=O)CCC(NC(=O)c1ccc(N(C)Cc2cnc3nc(N)nc(N)c3n2)cc1)C(=O)NCCCCCCCCCC (centres undefined) | 3.57 µM (inactive) | 5.53 µM (inactive) | 10 µM (inactive) | 18.8 µM (inactive) | 3.13 µM (inactive) | 20.1 µM (inactive) | 7.01 µM (inactive) | 7.89 µM (inactive) | > 90.6 µM (inactive) | 8.07 µM (inactive) | 11.6 µM (inactive) | 0.698 µM (active) | 3.71 µM (inactive) | 3.09 µM (inactive) | > 100 µM (inactive) | 8.99 µM (inactive) | 44.7 µM (inactive) | 4.43 µM (inactive) | 55.8 µM (inactive) | 4.47 µM (inactive) |
| CSc1ncnc2c1ncn2CC(=O)C1CCC2C3CCC4=CC(=O)CCC4(C)C3CCC12C (centres undefined) | 6.64 µM (inactive) | 12 µM (inactive) | 1.45 µM (inactive) | 5.85 µM (inactive) | 9.16 µM (inactive) | 13.9 µM (inactive) | 3.41 µM (inactive) | 2.05 µM (inactive) | 2.5 µM (inactive) | 18.3 µM (inactive) | 1.91 µM (inactive) | 3.47 µM (inactive) | 4.15 µM (inactive) | 19.1 µM (inactive) | 10 µM (inactive) | 3.49 µM (inactive) | 4.97 µM (inactive) | 3.61 µM (inactive) | 4.46 µM (inactive) | 3.07 µM (inactive) |
| OC(NN=C1CCCC1)(C(F)(F)Cl)C(F)(F)Cl | > 10 µM (inactive) | > 10 µM (inactive) | > 10 µM (inactive) | > 10 µM (inactive) | > 10 µM (inactive) | > 10 µM (inactive) | > 10 µM (inactive) | > 10 µM (inactive) | > 10 µM (inactive) | > 10 µM (inactive) | > 10 µM (inactive) | > 10 µM (inactive) | > 10 µM (inactive) | > 10 µM (inactive) | > 10 µM (inactive) | > 10 µM (inactive) | > 10 µM (inactive) | > 10 µM (inactive) | > 10 µM (inactive) | > 10 µM (inactive) |
| COc1cccc2cc(C(=O)Nc3ccccn3)c(=N)oc12 | 63 µM (inactive) | 49 µM (inactive) | 75.7 µM (inactive) | > 100 µM (inactive) | > 100 µM (inactive) | 54.8 µM (inactive) | > 100 µM (inactive) | > 100 µM (inactive) | > 100 µM (inactive) | > 100 µM (inactive) | 33 µM (inactive) | 39.4 µM (inactive) | 83.2 µM (inactive) | 55.7 µM (inactive) | > 100 µM (inactive) | > 100 µM (inactive) | 60.3 µM (inactive) | 46.5 µM (inactive) | > 100 µM (inactive) | 82.2 µM (inactive) |
| COc1ccc(-c2cc(-c3ccccc3)[nH]c(=S)c2C#N)cc1 | 32.4 µM (inactive) | 39.8 µM (inactive) | 20.7 µM (inactive) | 31.4 µM (inactive) | 33 µM (inactive) | 52.2 µM (inactive) | > 10 µM (inactive) | – | 39.1 µM (inactive) | 41.2 µM (inactive) | 8.63 µM (inactive) | 22.8 µM (inactive) | 34.9 µM (inactive) | 39.2 µM (inactive) | 61 µM (inactive) | 38.6 µM (inactive) | 33 µM (inactive) | 25.5 µM (inactive) | 76.7 µM (inactive) | 31.1 µM (inactive) |
